In patent publication US12209096B2, “Compounds and compositions for inducing chondrogenesis” (NOVARTIS AG, priority 2017, dated 2025):
pEC50: −log10 of the molar value.

Test system: NHACs
Assay: calcium flux assay
Assay type: cell-based, human
Conditions: Homo sapiens; for Emax: read-out: (A) % Efficacy
Procedure, shortened: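 Normal human articular chondrocytes plated at 2000 cells/well and loaded 24 h later with Calcium 5 dye in HBSS/HEPES with 5 mM probenecid for 1 h at room temperature. Test compound added at indicated dose; fluorescence (ex 470–495/em 515–575 nm) recorded on FLIPR before and after addition.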

pEC50 | SMILES | Emax
4.64 | Cc1ccc([C@@H]2[C@@H](C(=O)Nc3ccc(Cl)c(Cl)c3)[C@@H]3O[C@H]2C[C@H]3F)cn1 [Example 116, (1S,2R,3S,4S,6R)—N-(3,4-dichlorophenyl)-6-fluoro-3-(6-methylpyridin-3-yl)-7-oxabicyclo[2.2.1]heptane-2-carboxamide] | 58%
5.09 | COc1cc([C@H]2[C@H]3O[C@H]([C@@H]4C[C@@H]43)[C@@H]2C(=O)Nc2ccc(Cl)c(Cl)c2)ccn1 [Example 118, (1S,2S,4R,5R,6R,7S)—N-(3,4-dichlorophenyl)-7-(2-methoxypyridin-4-yl)-8-oxatricyclo[3.2.1.0^2,4]octane-6-carboxamide] | 118%
4.60 | O=C(Nc1ccc(Cl)c(Cl)c1)[C@H]1[C@@H]2O[C@@H]([C@H]3C[C@H]32)[C@@H]1c1ccnc(F)c1 [Example 119, (1S,2S,4R,5R,6R,7S)—N-(3,4-dichlorophenyl)-7-(2-fluoropyridin-4-yl)-8-oxatricyclo[3.2.1.0^2,4]octane-6-carboxamide] | 149%
4.77 | COc1ccc(NC(=O)[C@H]2[C@@H]3O[C@@H]([C@H]4C[C@H]43)[C@@H]2c2ccncc2)cn1 [Example 125, (1S,2S,4R,5R,6R,7S)—N-(6-methoxypyridin-3-yl)-7-(pyridin-4-yl)-8-oxatricyclo[3.2.1.0^2,4]octane-6-carboxamide] | 162%
< 4.30 | COc1ccc(NC(=O)[C@H]2[C@@H]3O[C@@H]([C@H]4C[C@H]43)[C@@H]2c2ccnc(F)c2F)cn1 [Example 127, (1S,2S,4R,5R,6R,7S)-7-(2,3-difluoropyridin-4-yl)-N-(6-methoxypyridin-3-yl)-8-oxatricyclo[3.2.1.0^2,4]octane-6-carboxamide] | 62%
5.00 | O=C(Nc1ccc(Cl)c(Cl)c1)[C@H]1[C@@H]2O[C@@H]([C@H]3C[C@H]32)[C@@H]1c1cnc(F)nc1 [Example 129, (1S,2S,4R,5R,6R,7S)—N-(3,4-dichlorophenyl)-7-(2-fluoropyrimidin-5-yl)-8-oxatricyclo[3.2.1.0^2,4]octane-6-carboxamide] | 146%
5.00 | O=C(Nc1cccc(C(F)(F)F)c1)[C@H]1[C@@H]2O[C@@H]([C@H]3C[C@H]32)[C@@H]1c1cncnc1 [Example 130, (1S,2S,4R,5R,6R,7S)-7-(pyrimidin-5-yl)-N-(3-(trifluoromethyl)phenyl)-8-oxatricyclo[3.2.1.0^2,4]octane-6-carboxamide] | 237%
4.72 | O=C(Nc1cccc(C(F)(F)F)c1)[C@H]1[C@@H]2O[C@@H]([C@H]3C[C@H]32)[C@@H]1c1ccncc1 [Example 131, (1S,2S,4R,5R,6R,7S)-7-(pyridin-4-yl)-N-(3-(trifluoromethyl)phenyl)-8-oxatricyclo[3.2.1.0^2,4]octane-6-carboxamide] | 360%
4.74 | Nc1ncc([C@H]2[C@H]3O[C@H]([C@@H]4C[C@@H]43)[C@@H]2C(=O)Nc2ccc(Cl)c(Cl)c2)cn1 [Example 132, (1S,2S,4R,5R,6R,7S)-7-(2-aminopyrimidin-5-yl)-N-(3,4-dichlorophenyl)-8-oxatricyclo[3.2.1.0^2,4]octane-6-carboxamide] | 321%
4.60 | O=C(Nc1ccc(Cl)c(Cl)c1)[C@H]1[C@@H]2O[C@@H]([C@H]3C[C@H]32)[C@@H]1c1cnc(N2CCOCC2)nc1 [Example 133, (1S,2S,4R,5R,6R,7S)—N-(3,4-dichlorophenyl)-7-(2-morpholinopyrimidin-5-yl)-8-oxatricyclo[3.2.1.0^2,4]octane-6-carboxamide] | 158%
4.72 | O=C(Nc1cccc(C(F)(F)F)c1)[C@H]1[C@@H]2O[C@@H]([C@H]3C[C@H]32)[C@@H]1c1ccnc(F)c1 [Example 134, (1S,2S,4R,5R,6R,7S)-7-(2-fluoropyridin-4-yl)-N-(3-(trifluoromethyl)phenyl)-8-oxatricyclo[3.2.1.0^2,4]octane-6-carboxamide] | 249%
4.80 | Cc1ncc([C@H]2[C@H]3O[C@H]([C@@H]4C[C@@H]43)[C@@H]2C(=O)Nc2ccc(Cl)c(Cl)c2)cn1 [Example 135, (1S,2S,4R,5R,6R,7S)—N-(3,4-dichlorophenyl)-7-(2-methylpyrimidin-5-yl)-8-oxatricyclo[3.2.1.0^2,4]octane-6-carboxamide] | 237%
4.77 | O=C(Nc1cnc(Cl)c(Cl)c1)[C@H]1[C@@H]2O[C@@H]([C@H]3C[C@H]32)[C@@H]1c1ccncc1 [Example 136, (1S,2S,4R,5R,6R,7S)—N-(5,6-dichloropyridin-3-yl)-7-(pyridin-4-yl)-8-oxatricyclo[3.2.1.0^2,4]octane-6-carboxamide] | 254%
4.68 | O=C(Nc1ccc(Cl)c(Cl)c1)[C@H]1[C@@H]2O[C@@H]([C@H]3C[C@H]32)[C@@H]1c1ccncc1 [Example 137, (1S,2S,4R,5R,6R,7S)—N-(3,4-dichlorophenyl)-7-(pyridin-4-yl)-8-oxatricyclo[3.2.1.0^2,4]octane-6-carboxamide] | 202%
4.82 | O=C(Nc1ccc(Cl)c(Cl)c1)[C@@H]1[C@@H](c2cccc(C(F)(F)F)n2)[C@H]2O[C@@H]1C[C@@H]2O [Example 140, (1R,2R,3S,4R,5S)—N-(3,4-dichlorophenyl)-5-hydroxy-3-(6-(trifluoromethyl)pyridin-2-yl)-7-oxabicyclo[2.2.1]heptane-2-carboxamide] | 292%
4.89 | O=C(Nc1ccc(Cl)c(Cl)c1)[C@@H]1[C@@H](c2cncnc2)[C@H]2O[C@@H]1C[C@@H]2O [Example 141, (1R,2R,3S,4R,5S)—N-(3,4-dichlorophenyl)-5-hydroxy-3-(pyrimidin-5-yl)-7-oxabicyclo[2.2.1]heptane-2-carboxamide] | 43%
6.10 | O=C(Nc1ccc(Cl)c(Cl)c1)[C@H]1[C@H](c2ccnc(F)c2)[C@@H]2O[C@H]1C[C@H]2O [Example 142b, (1S,2S,3R,4S,5R)-N-(3,4-dichlorophenyl)-3-(2-fluoropyridin-4-yl)-5-hydroxy-7-oxabicyclo[2.2.1]heptane-2-carboxamide] | 54%
< 4.30 | Nc1ncc([C@H]2[C@H]3O[C@H](C[C@@H]3O)[C@@H]2C(=O)Nc2ccc(Cl)c(Cl)c2)cn1 [Example 143, (1R,2R,3S,4R,5S)-3-(2-aminopyrimidin-5-yl)-N-(3,4-dichlorophenyl)-5-hydroxy-7-oxabicyclo[2.2.1]heptane-2-carboxamide] | 0%
4.52 | CN(C)c1ncc([C@H]2[C@H]3O[C@H](C[C@@H]3O)[C@@H]2C(=O)Nc2ccc(Cl)c(Cl)c2)cn1 [Example 144, (1R,2R,3S,4R,5S)—N-(3,4-dichlorophenyl)-3-(2-(dimethylamino)pyrimidin-5-yl)-5-hydroxy-7-oxabicyclo[2.2.1]heptane-2-carboxamide] | 183%
4.70 | O=C(Nc1ccc(Cl)c(Cl)c1)[C@@H]1[C@@H](c2ccnc(F)c2F)[C@H]2O[C@@H]1C[C@@H]2O [Example 146, (1R,2R,3S,4R,5S)—N-(3,4-dichlorophenyl)-3-(2,3-difluoropyridin-4-yl)-5-hydroxy-7-oxabicyclo[2.2.1]heptane-2-carboxamide] | 150%
4.55 | O=C(Nc1ccc(Cl)c(Cl)c1)[C@@H]1[C@@H](c2cc(F)ncc2F)[C@H]2O[C@@H]1C[C@@H]2O [Example 147, (1R,2R,3S,4R,5S)—N-(3,4-dichlorophenyl)-3-(2,5-difluoropyridin-4-yl)-5-hydroxy-7-oxabicyclo[2.2.1]heptane-2-carboxamide] | 284%
< 4.30 | O=C(Nc1ccc(Cl)c(Cl)c1)[C@@H]1[C@@H](c2ccncc2)[C@H]2O[C@@H]1C[C@@H]2O [Example 150, (1R,2R,3S,4R,5S)—N-(3,4-dichlorophenyl)-5-hydroxy-3-(pyridin-4-yl)-7-oxabicyclo[2.2.1]heptane-2-carboxamide] | 5%
< 4.30 | O=C(Nc1ccc(Cl)c(Cl)c1)[C@@H]1[C@@H](c2cnc(F)nc2)[C@H]2O[C@@H]1C[C@@H]2O [Example 151, (1R,2R,3S,4R,5S)—N-(3,4-dichlorophenyl)-3-(2-fluoropyrimidin-5-yl)-5-hydroxy-7-oxabicyclo[2.2.1]heptane-2-carboxamide] | 0%
4.59 | CO[C@H]1C[C@H]2O[C@@H]1[C@H](c1ccnc(C)c1)[C@H]2C(=O)Nc1ccc(Cl)c(Cl)c1 [Example 155, (1R,2R,3S,4R,5S)—N-(3,4-dichlorophenyl)-5-methoxy-3-(2-methylpyridin-4-yl)-7-oxabicyclo[2.2.1]heptane-2-carboxamide] | 262%
< 4.30 | Cc1cc([C@H]2[C@H]3O[C@H]([C@H](O)[C@@H]3O)[C@@H]2C(=O)Nc2cccc(C(F)(F)F)c2)ccn1 [Example 158, (1S,2R,3S,4R,5S,6R)-5,6-dihydroxy-3-(2-methylpyridin-4-yl)-N-(3-(trifluoromethyl)phenyl)-7-oxabicyclo[2.2.1]heptane-2-carboxamide] | 31%
< 4.30 | O=C(Nc1cccc(C(F)(F)F)c1)[C@H]1[C@@H]2O[C@@H]([C@@H](O)[C@H]2O)[C@@H]1c1ccncc1 [Example 159, (1S,2R,3S,4R,5S,6R)-5,6-dihydroxy-3-(pyridin-4-yl)-N-(3-(trifluoromethyl)phenyl)-7-oxabicyclo[2.2.1]heptane-2-carboxamide] | 11%
< 4.30 | O=C(Nc1ccc(Cl)c(Cl)c1)[C@H]1[C@@H]2O[C@@H]([C@@H](O)[C@H]2O)[C@@H]1c1ccncc1 [Example 160, (1S,2R,3S,4R,5S,6R)—N-(3,4-dichlorophenyl)-5,6-dihydroxy-3-(pyridin-4-yl)-7-oxabicyclo[2.2.1]heptane-2-carboxamide] | 32%
< 4.30 | Cc1cc([C@H]2[C@H]3O[C@H]([C@H](O)[C@@H]3O)[C@@H]2C(=O)Nc2ccnc(C(F)(F)F)c2)ccn1 [Example 161, (1S,2R,3S,4R,5S,6R)-5,6-dihydroxy-3-(2-methylpyridin-4-yl)-N-(2-(trifluoromethyl)pyridin-4-yl)-7-oxabicyclo[2.2.1]heptane-2-carboxamide] | 29%
